Patent US8916517B2, “Analogs of pituitary adenylate cyclase-activating polypeptide (PACAP) and methods for their use” (The Administrators of the Tulane Educational Fund, priority 2009, dated 2014)
pEC50: −log10 of the molar value. Where “and” joins values, the source holds several entries; their conditions need not be identical. Equal values may be shown once. Entries after “also recorded” stand apart in the source; their conditions may differ. Read-outs that look alike come from different tables or passages of the source.

Key:
[1] = tested on: light-chain immunoglobulin-secreting human multiple myeloma cells; experiment: Inhibition of proliferation of light-chain immunoglobulin-secreting human multiple myeloma cells (bromodeoxyuridine incorporation); type: cell-based
Protocol: FIG. 3 is a table listing the EC50 for the inhibitory effects of PACAP38, PACAP27, VIP, and eight novel PACAP analogs on the proliferation of light-chain immunoglobulin-secreting myeloma cells. The light-chain immunoglobulin-secreting human multiple myeloma cells were cultured in RPMI 1640 medium supplemented with 10% non-inactivated fetal bovine serum and 0.05 mM 2-mercaptoethanol. The effects of PACAP38, PACAP27, VIP, and the eight novel PACAP analogs on myeloma cell proliferation were assessed by determining incorporation of bromodeoxyuridine into DNA during cell division. The number of myeloma cells approximately doubled during the 24-hour incubation period in the absence of treatment with PACAP-like peptides. Five different concentrations, ranging from 10^-13 M to 10^-5 M, were tested for PACAP38, PACAP27, VIP, and each of the eight novel PACAP analogs. The EC50 was calculated from the concentration response curve using the software package Prism (Graph Pad, San Diego, CA). Each value represents the mean of four-six determinations per experiment. The EC50 for PACAP38 is based on the average of four separate experiments, while the EC50 for PACAP27 and [Pip^3,Aib ^16,28,Ala^17,Lys^34,D-LysIPACAP 38 (SEQ ID NO: 4) is based on the average of two separate experiments.
FIG. 4 is a graph showing a representative concentration response curve from a single experiment on the inhibitory effects PACAP38 and six PACAP38 analogs on the proliferation of light-chain immunoglobulin-secreting human myeloma cells. Each value represents the mean plus/minus the standard error of four-six determinations. Note that replacing pipecolic acid in position 3 of the novel analogs with either nipecotic acid or isonipecotic acid results in an analog with more than four orders of magnitude lower inhibitory potency.
The effects of PACAP38, PACAP27, VIP, and PACAP analogs on myeloma cell proliferation were assessed by determining incorporation bromodeoxyuridine into DNA during cell division. […]

[2] = tested on: rat renal proximal tubule epithelial cells; experiment: Reduction of cisplatin-induced apoptotic cell death of renal proximal tubule epithelial cells (histone-associated DNA fragmentation); type: cell-based; conditions: cisplatin 24 hours; for reduction in cisplatin-induced apoptotic cell death: 10^-6 M in the medium
[3] = tested on: ischemia/reperfusion injury to the kidney; experiment: Serum creatinine after renal ischemia/reperfusion injury in mice; type: in vivo, male C57BL/6 mice; conditions: 20 micrograms i.p. 1, 24 and 48 h after start of reperfusion; 45 min renal artery clamping; 72 hours
Protocol: FIG. 6 is a graph showing the effects of PACAP38 and two novel PACAP analogs on serum creatinine levels in mice following ischemia/reperfusion injury to the kidney. The renal artery in male C57BL/6 mice was clamped bilaterally for 45 minutes in all mice except for the sham-operated mice. Twenty micrograms of PACAP38 or one of the PACAP analogs were given intraperitoneally 1 hour after the start of reperfusion and additional doses were given at 24 and 48 hours after the initial dose. The sham-operated group of mice was injected intraperitoneally with PACAP38 on the same schedule as the mice subjected to ischemia/reperfusion. The control group of mice was injected intraperitoneally with the same volume of saline as for the injections of PACAP38 on the same schedule. All of the mice were euthanized 24 hours after the final injection of saline, PACAP38 or one of the novel PACAP analogs. Each value represents the mean plus/minus the standard error of four determinations. **p<0.01 and *p<0.05 compared to the ischemia/reperfusion group treated with saline. I/R, ischemia/reperfusion; sham, sham-operated.

[4] = tested on: human myeloma cell line (MM.1S); experiment: Proliferation of myeloma cell line MM.1S (bromodeoxyuridine incorporation); type: cell-based; conditions: FIG. 8
Protocol: (§1) FIG. 8 is a graph showing the effects PACAP38, [Pip^3,Ala^14,17,Aib^1 6,28,Lys^34,D-Lys^38 (SEQ ID NO: 6) and dexamethasone on the proliferation of light-chain immunoglobulin-secreting human myeloma cell line (MM.1S) that was derived from a patient who was being treated for multiple myeloma with a dexamethasome-containing regimen. The light-chain immunoglobulin-secreting multiple myeloma cells were cultured in RPMI 1640 medium supplemented with 10% non-inactivated fetal bovine serum and 0.05mM 2-mercaptoethanol. The effects of dexamethasone, PACAP38 and the novel PACAP38analog on cell proliferation were assessed by determining the incorporation of bromodeoxyuridine into DNA during cell division. Each value represents the mean plus/minus the standard error of four-six determinations. The cell lines in FIGS. 8 and 9 were obtained from the same patient at different stages of the treatment (Greenstein et al., Exp HematoI31 :271-282, 2003).

[5] = tested on: human myeloma cell line (MM.1 R); experiment: Proliferation of dexamethasone-resistant myeloma cell line MM.1R (bromodeoxyuridine incorporation); type: cell-based; conditions: FIG. 9
Protocol: as §1, with “FIG. 9” for “FIG. 8”, “PACAP38, [Pip^3,Ala^14,17,Aib^16,28,Lys^34,D-Lys^38] PACAP38(SEQ” for “PACAP38, [Pip^3,Ala^14,17,Aib^1 6,28,Lys^34,D-Lys^38 (SEQ”, “line (MM.1 R)” for “line (MM.1S)”, “novel PACAP38 analog” for “novel PACAP38analog”, “four-six determination.” for “four-six determinations.”, “Exp Hematol 31” for “Exp HematoI31”

[6] = tested on: human renal proximal tubule epithelial cells; experiment: Reduction of gentamicin-induced apoptotic cell death of human renal proximal tubule epithelial cells; type: cell-based; conditions: gentamicin 24 hours
Protocol: The inhibitory effects of PACAP38 and the novel PACAP analog on apoptotic cell death was assessed by the quantitative determination of cytoplasmic histone-associated DNA-fragmentation (mono- and oligonucleosomes) after exposure to gentamicin for 24 hours. […] Each value represents the mean plus/minus the standard deviation of four determinations. **p<0.01 and *p<0.05 compared to the group treated only with gentamicin.

[7] = tested on: transient focal cerebral ischemia; conditions: 48 hours, cited from earlier work
[8] = tested on: rat hippocampal neuron/glia co-cultures; conditions: gp120 as neurotoxin; cited from earlier work
[9] = humans; cited from earlier work
PAC1 receptor = biological target: T1, PAC1 receptor (Homo sapiens, UniProt P41586); conditions: cited from earlier work
T1 sequence (P41586 21-468): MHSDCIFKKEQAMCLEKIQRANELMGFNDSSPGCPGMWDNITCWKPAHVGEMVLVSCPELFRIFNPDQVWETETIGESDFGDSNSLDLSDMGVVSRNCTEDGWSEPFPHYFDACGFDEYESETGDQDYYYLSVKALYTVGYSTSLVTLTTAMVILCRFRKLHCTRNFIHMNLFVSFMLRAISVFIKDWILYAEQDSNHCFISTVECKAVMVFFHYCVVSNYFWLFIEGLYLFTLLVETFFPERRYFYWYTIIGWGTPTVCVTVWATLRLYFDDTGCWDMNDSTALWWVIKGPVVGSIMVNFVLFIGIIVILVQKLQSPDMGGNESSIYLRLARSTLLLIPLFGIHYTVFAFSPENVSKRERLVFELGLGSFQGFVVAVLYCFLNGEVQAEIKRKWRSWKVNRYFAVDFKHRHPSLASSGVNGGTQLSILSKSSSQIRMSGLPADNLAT

[10] = rat, in vivo, iv; cited from earlier work

Question: With “HSDGIFTDSYSRYRKQMAVKKYLAAVLGKRYKQRVKNK [PACAP38]” as the substance, how does the pEC50 ([1]; 24-hour incubation, FIG. 3, read-out: concentration giving 50% inhibition of the rate of proliferation (EC50)) read?
Answer: ~9.60

Question: What about the “reduction in cisplatin-induced apoptotic cell death” value [2] of the same substance?
Answer: significant reduction

Question: And the “reversal of the rise in serum creatinine caused by ischemia/reperfusion” value [3]?
Answer: almost completely reversed

Question: And the “sensitivity of cell proliferation” value [4]?
Answer: sensitive

Question: And the “sensitivity of cell proliferation” value [5]?
Answer: still sensitive

Question: What about the “cytoprotective potency, PACAP38 versus [Pip^3]PACAP38” value [6] of the same substance?
Answer: more effective

Question: And the “reduction in gentamicin-induced apoptotic cell death” value ([6]; various concentrations)?
Answer: significant dose-dependent reduction; also recorded: dose-dependent inhibition

Question: What about the “reduction of the infarct volume” value ([7]; continuous i.v. infusion beginning 4 hours after start of 2-hour MCAO) of the same substance?
Answer: approximately 51%

Question: And the “reduction of the infarct volume” value ([7]; continuous i.v. infusion beginning 8 hours after start of 2-hour MCAO)?
Answer: ~22%

Question: And the “reduction of the infarct volume” value ([7]; continuous i.v. infusion beginning 12 hours after start of 2-hour MCAO)?
Answer: ~12%

Question: What does the source list for PACAP?
Answer: peaks of bimodal dose-response curve for prevention of neuronal death [8]: 10^−13 M and 10^−10 M; only untoward effect reported [9]: transient flushing

Question: Which “potency compared with PACAP38 or the novel PACAP38 analogs” value ([1]; inhibition of myeloma cell proliferation) does the source give for VIP here?
Answer: significantly less potent

Question: And the “reduction in cisplatin-induced apoptotic cell death” value [2]?
Answer: reduced

Question: What about the “cytoprotective potency compared with PACAP38” value ([2]; comparable concentrations) of the same substance?
Answer: significantly less potent than PACAP38

Question: What about the “affinity for PAC1 receptor relative to PACAP” value (PAC1 receptor) of the same substance?
Answer: 1,000 times less

Question: Which “half-life in the bloodstream” value [10] does the source give for [^125I]-PACAP38 here?
Answer: 5 to 6 min
